Measured values as given in publication PMC7497016, “The Human Host‐Defense Peptide Cathelicidin LL‐37 is a Nanomolar Inhibitor of Amyloid Self‐Assembly of Islet Amyloid Polypeptide (IAPP)” (Angewandte Chemie (International Ed. in English), 2020).
Read-outs that look alike come from different tables or passages of the source. Blank lines part the entries; values can stand above or below the compound they belong to. Ends that are not written are not given here.

Tests used:
[1] = target: T1, IAPP (Fluos-IAPP, mostly monomers) (Homo sapiens, UniProt P10997); assay: Fluorescence spectroscopic titration of Fluos-IAPP; assay type: binding; conditions: for Kd: SD
T1 construct: made in house; host or cells: chemical synthesis
T1 sequence (P10997 34-70 limits assumed): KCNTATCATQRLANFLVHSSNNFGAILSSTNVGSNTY
Experimental: Fluorescence spectros copic titrations
Fluorescence spectrosco pic titration studies w ere performed with a JASC O FP-6500 fluorescence spectrophotometer using a previously described experimental protocol.[1, 5, 7] Briefly, excitation was at 492 nm and emission spectra were recorded between 500 and 600 nm. The app arent (app.) Kds of the interactions of IAPP with LL-37 and its segments LL-37(1- 14) and LL-37(15- 37) were quantified by titrating synthetic N α-amino-terminal fluorescein labeled IAPP (5 nM) with various amounts of each of the peptides . For all exp eri ments , freshly made stocks of peptides and their fluorescently lab eled an alogs in HF IP wer e used. Measurements w er e performed in 10 mM sodium phosphate buffer (pH 7.4) containing 1% HFIP within 2-5 min following solution preparation at room temperature. Of note, under these conditions freshly made Fluos-IAPP (5 nM) solutions consist mostly of monomers.[1] App. Kds were calculated using 1/1 binding models as previously described and ar e means (± SD) of three binding curves.[1, 3, 5, 7]
Cross-linking, NuPAGE, and Western Blot analysis
Cross-linking studies were preformed using a previously developed assay system.[5] Briefly, solutions of IAPP alone (30 µM) and its mixtures with LL-37 or scrLL- 37 at the indicated molar ratios (IAPP/LL-37 at 1/1 or 1/0.1) wer e p repared in aqueous sodium phosphate buffer, pH 7.4,

[2] = test system: cytotoxic IAPP assemblies on RIN5fm cells
RIN5fm cells = conditions: LL-37 alone, 7 days aged, 1 assay, n=3
[3] = target: T2, IAPP monomers and fibrils (Homo sapiens, UniProt P10997); assay: Dot blot binding to IAPP monomers and fibrils; conditions: IAPP monomers and fibrils (40 µg) on nitrocellulose, FAM-LL-37 200 nM, overnight 10 °C; representative of 4 assays
T2 construct: The 37‐residue IAPP is secreted from the β‐cells together with insulin; made in house; host or cells: chemical synthesis (Fmoc solid-phase synthesis on Rink resin)
T2 sequence (P10997 34-70 limits assumed): T1 sequence (P10997 34-70 limits assumed)
Experimental: Solutions were cross-linked using 25% aqueous glutaraldehyde (Sigma-Aldrich) an d 10% aqueous trichloro acetic acid (TCA ) was […] buffer, boiled for 5 min, and subjected to NuPAGE electrophoresis in 4- 12% Bis-Tris gels with MES running buffer (Invitrogen). The s ame volume of each solution (same IAPP amount) was loaded in all l anes. Peptid es were blotted using a X Cell II Blot Module blotting system (Invitrogen ). IAPP or […] using a polyclonal rabbit anti-IAPP antibody (Peninsula) or a monoclonal mouse anti-LL- 37 antibody (Santa Cruz Biotechnology), resp ectively in combination with suitable peroxidase (POD)-coupled s econdary antibodies (Pierce & Am […] Super Signal West Dura Extended Duration Substrate (Pierce). Of note, previous studies provided evidence for the […] of th e cross-linking assay; in addition, no new bands were obs […]-37 (1/1) mixtures (data not shown).[5] Dot blot analysis IAPP monomers or IAPP fibrils (fIAPP) containin g solutions (different am ounts up to 40 μg) were spotted onto a nitrocellulose membrane. […] In addition, to control for t he interference of fibril autofluorescence, a membrane containing spotted f IA P P which had been incubated in buffer alone w/o FAM-LL-37 was included in each assay; in general, fIAPP autofluorescence contribute d up to 25% of the total amount of fluorescence observed in fIAPP bound toFAM -LL- 37. […]

[4] = Fluos-IAPP 5 nM, 10 mM sodium phosphate pH 7.4, 1% HFIP, room temperature, 1/1 binding model, mean (±SD) of three binding curves, read-out: app. Kd of interaction with Fluos-IAPP

Compound: CC[C@H](C)[C@H](NC(=O)[C@H](CCCCN)NC(=O)[C@H](CCC(=O)O)NC(=O)[C@H](CCCCN)NC(=O)[C@H](CO)NC(=O)[C@H](CCCCN)NC(=O)[C@H](CCCNC(=N)N)NC(=O)[C@H](Cc1ccccc1)NC(=O)[C@H](Cc1ccccc1)NC(=O)[C@H](CC(=O)O)NC(=O)CNC(=O)[C@H](CC(C)C)NC(=O)[C@@H](N)CC(C)C)C(=O)NCC(=O)N[C@@H](CCCCN)C(=O)N[C@@H](CCC(=O)O)C(=O)N[C@@H](Cc1ccccc1)C(=O)N[C@@H](CCCCN)C(=O)N[C@@H](CCCNC(=N)N)C(=O)N[C@H](C(=O)N[C@H](C(=O)N[C@@H](CCC(N)=O)C(=O)N[C@@H](CCCNC(=N)N)C(=O)N[C@H](C(=O)N[C@@H](CCCCN)C(=O)N[C@@H](CC(=O)O)C(=O)N[C@@H](Cc1ccccc1)C(=O)N[C@@H](CC(C)C)C(=O)N[C@@H](CCCNC(=N)N)C(=O)N[C@@H](CC(N)=O)C(=O)N[C@@H](CC(C)C)C(=O)N[C@H](C(=O)N1CCC[C@H]1C(=O)N[C@@H](CCCNC(=N)N)C(=O)N[C@H](C(=O)N[C@@H](CCC(=O)O)C(=O)N[C@@H](CO)C(=O)O)[C@@H](C)O)C(C)C)[C@@H](C)CC)C(C)C)[C@@H](C)CC [LL-37]
increase in fluorescence emission of Fluos-IAPP ([1]; Fluos-IAPP 5 nM with 100-fold molar excess of LL-37, pH 7.4): 322%
Kd [1]: 88.1 nM
effect on formation of cytotoxic IAPP assemblies (MTT reduction) [2]: effectively suppressed
IC50 ([2]; rat, SD): 17 nM
cytotoxicity of peptide alone (MTT reduction) (RIN5fm cells): not cytotoxic

Kd [1, 4]: 2540 nM
Compound: LLGDFFRKSKEKIG [LL-37(1-14)]

binding to IAPP fibrils and monomers (dot blot) [3]: bound both IAPP fibrils and monomers
Compound: FAM-LL-37: N-terminal fluorescein-labeled LL-37 with 6-aminohexanoic acid spacer, from Anaspec

Kd [1, 4]: 31.9 nM
Compound: KEFKRIVQRIKDFLRNLVPRTES [LL-37(15-37)]
